Measured values reported in patent US20020091133A1, “Use of 9-substituted purine analogues and other molecules to stimulate neurogenesis” (Eve M. Taylor, priority 2000, published 2002).

Key:
[1] = tested on: neural stem and progenitor cells in the dentate gyrus; test: Neural stem and progenitor cell proliferation: BrdU labeling in dentate gyrus 24 hr after single AIT-082 dose; format: in vivo; settings: adult mice, single intraperitoneal dose 0.1-10 mg/kg, perfused at 24 hr; normalized to saline control, two experiments combined (FIG. 2)
Experimental: In two separate experiments, AIT-082 was administered intraperitoneally to adult mice (5-7 per group) at 0.01-100 mg/kg. Saline was given as a negative control. Starting two hours after AIT-082 administration, animals received four intraperitoneal injections of bromodeoxyuridine (BrdU; 50 mg/kg each) at 3 hr intervals. BrdU is a thymidine analogue that is incorporated into DNA during synthesis and thus labels newly formed cells. Animals were perfused at 24 hr after the AIT-082 administration. This treatment regimen is outlined in FIG. 1.
Animals were perfused transcardially with 50 mL ice-cold phosphate buffered saline (PBS) and then 100 mL of 4% paraformaldehyde in PBS. Brains were removed, post-fixed in 4% paraformaldehyde for 24 hr at 4° C., and then transferred to 30% sucrose at 4° C. for a minimum of 3 days before sectioning. Coronal sections (40 μm) were prepared using a freezing microtome and stored in cryoprotectant at −20° C. before immunostaining for BrdU.
Every sixth section through the rostral-caudal extent of the hippocampus was immunostained for BrdU with mouse anti-BrdU paired with a biotinylated goat anti-mouse IgG. Avidin-biotin-horseradish peroxidase (HRP) complex was applied to sections and immunoreactivity visualized by reacting diaminobenzidine with the HRP. Stereological techniques were used to estimate the total number of BrdU-positive cells in the dentate gyrus.

[2] = tested on: neural stem and progenitor cells in the dentate gyrus; test: Neural stem and progenitor cell differentiation: BrdU/NeuN/S100β colocalization in dentate gyrus 42 days after single AIT-082 dose; format: in vivo; settings: adult mice
Experimental: AIT-082 was administered intraperitoneally to adult mice (5-7 per group) at a dose of 1 -100 mg/kg. Saline was given as a negative control. Starting two hours after AIT-082 administration, animals received four intraperitoneal injections of bromodeoxyuridine (BrdU; 50 mg/kg each) at 3 hr intervals. Animals were perfused at 42 days after the AIT-082 administration. During these 42 days newly born neural stem cells have enough time to differentiate into neurons, astrocytes and other brain cells. This treatment regimen is outlined in FIG. 3.
Animals were perfused, brains treated and sections prepared as described for Example 1.
Every sixth section through the rostral-caudal extent of the hippocampus was immunostained with rat anti-BrdU paired with a Alexa 568 goat anti-rat IgG (red), mouse anti-NeuN (a neuronal marker) paired with Alexa 488 goat anti-mouse IgG (green), and rabbit anti-S100β (an astrocytes marker) paired with Alexa 647 goat anti-rabbit IgG (blue). Stereological techniques were used to estimate the total number of BrdU-positive nuclei in the dentate gyrus and the number of BrdU-positive cells that were also positive for NeuN (i.e indicating newly formed neurons) or S100β (indicating newly formed astrocytes). Cells that were BrdU-positive and not positive for either NeuN or S100β were labeled “other”. […]

O=C(CCn1cnc2c(=O)[nH]cnc21)Nc1ccc(C(=O)O)cc1 [AIT-082, N-4-[[3-(6-oxo-1,6-dihydropurin-9-yl)-1-oxopropyl]amino] benzoic acid]
total number of BrdU-positive cells in dentate gyrus [1]: statistically significant increase | number of BrdU-positive cells in dentate gyrus ([2]; single intraperitoneal dose 1 or 10 mg/kg, perfused at 42 days (FIG. 5A)): increase | number of new neurons formed in the dentate gyrus (BrdU- and NeuN-positive cells) ([2]; single intraperitoneal dose, perfused at 42 days (FIG. 5B)): significant increase
